Bounds are passed on as bounds.

Among the data in patent US11814367B2, “Inhibitors of glycogen synthase 1 (GYS1) and methods of use thereof” (Maze Therapeutics, Inc., priority 2021, dated 2023) are IC50 values, retold here.

The target in test [1] is hGYS2 enzyme (recombinant hGYS2/GN1 protein) (Homo sapiens (Human), UniProt P54840). The experiment in a line: GYS2 coupled enzyme assay (PK/LDH). Format: biochemical. Particulars: geometric mean of at least 2 assay runs on separate days, read-out: Avg_IC50. The gist of the method: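 IC50 came from Hill fits of duplicate percent inhibition, based on control-normalized slopes of 340 nm NADH decline read each minute for 10 min. The reaction held recombinant hGYS2/GN1 (200 nM) with glycogen, UDP-glucose, G6P and PEP, plus PK/LDH coupling at pH 7.5 and 2.5% DMSO.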
Sequence of hGYS2 enzyme (recombinant hGYS2/GN1 protein) (P54840 whole entry): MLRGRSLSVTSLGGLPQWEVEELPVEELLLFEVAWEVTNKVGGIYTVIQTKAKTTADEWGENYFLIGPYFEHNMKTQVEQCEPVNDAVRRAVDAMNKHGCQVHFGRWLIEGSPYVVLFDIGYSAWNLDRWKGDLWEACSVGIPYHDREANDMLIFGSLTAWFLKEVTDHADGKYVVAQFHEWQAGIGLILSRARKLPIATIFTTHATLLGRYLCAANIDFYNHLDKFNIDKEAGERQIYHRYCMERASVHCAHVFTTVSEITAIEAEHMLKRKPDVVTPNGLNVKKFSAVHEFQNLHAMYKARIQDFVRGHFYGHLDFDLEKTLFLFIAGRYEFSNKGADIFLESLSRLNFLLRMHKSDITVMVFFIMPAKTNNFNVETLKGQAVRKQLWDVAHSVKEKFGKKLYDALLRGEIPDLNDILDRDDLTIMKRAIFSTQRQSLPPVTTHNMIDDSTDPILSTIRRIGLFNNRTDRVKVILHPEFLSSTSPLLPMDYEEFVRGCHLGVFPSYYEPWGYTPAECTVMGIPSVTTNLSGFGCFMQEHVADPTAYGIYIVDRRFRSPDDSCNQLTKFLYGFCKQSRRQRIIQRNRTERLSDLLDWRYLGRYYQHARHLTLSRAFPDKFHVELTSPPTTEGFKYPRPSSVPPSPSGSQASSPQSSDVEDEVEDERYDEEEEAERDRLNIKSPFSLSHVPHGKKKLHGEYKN
Sequence of hGYS2 enzyme (recombinant hGYS2/GN1 protein) (P46976 whole entry partner): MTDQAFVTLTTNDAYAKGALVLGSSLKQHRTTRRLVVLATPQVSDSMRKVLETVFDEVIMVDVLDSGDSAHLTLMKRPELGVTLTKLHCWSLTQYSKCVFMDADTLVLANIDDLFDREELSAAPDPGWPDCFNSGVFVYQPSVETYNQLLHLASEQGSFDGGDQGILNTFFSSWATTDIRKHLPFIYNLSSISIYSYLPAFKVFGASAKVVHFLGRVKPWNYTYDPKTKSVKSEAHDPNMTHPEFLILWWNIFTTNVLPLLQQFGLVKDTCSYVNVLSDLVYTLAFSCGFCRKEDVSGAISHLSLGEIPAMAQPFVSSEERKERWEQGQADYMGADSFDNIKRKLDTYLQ

The target in test [2] is hGYS1 enzyme (recombinant hGYS1/GN1 protein) (Homo sapiens (Human), UniProt P13807). The experiment in a line: GYS1 coupled enzyme assay (PK/LDH). To be noted: hGYS1/GN1 50 nM, UDP-Glucose 0.8 mM, G6P 1 mM; geometric mean of at least 2 runs. In kind it is biochemical.
Sequence of hGYS1 enzyme (recombinant hGYS1/GN1 protein) (P13807 whole entry): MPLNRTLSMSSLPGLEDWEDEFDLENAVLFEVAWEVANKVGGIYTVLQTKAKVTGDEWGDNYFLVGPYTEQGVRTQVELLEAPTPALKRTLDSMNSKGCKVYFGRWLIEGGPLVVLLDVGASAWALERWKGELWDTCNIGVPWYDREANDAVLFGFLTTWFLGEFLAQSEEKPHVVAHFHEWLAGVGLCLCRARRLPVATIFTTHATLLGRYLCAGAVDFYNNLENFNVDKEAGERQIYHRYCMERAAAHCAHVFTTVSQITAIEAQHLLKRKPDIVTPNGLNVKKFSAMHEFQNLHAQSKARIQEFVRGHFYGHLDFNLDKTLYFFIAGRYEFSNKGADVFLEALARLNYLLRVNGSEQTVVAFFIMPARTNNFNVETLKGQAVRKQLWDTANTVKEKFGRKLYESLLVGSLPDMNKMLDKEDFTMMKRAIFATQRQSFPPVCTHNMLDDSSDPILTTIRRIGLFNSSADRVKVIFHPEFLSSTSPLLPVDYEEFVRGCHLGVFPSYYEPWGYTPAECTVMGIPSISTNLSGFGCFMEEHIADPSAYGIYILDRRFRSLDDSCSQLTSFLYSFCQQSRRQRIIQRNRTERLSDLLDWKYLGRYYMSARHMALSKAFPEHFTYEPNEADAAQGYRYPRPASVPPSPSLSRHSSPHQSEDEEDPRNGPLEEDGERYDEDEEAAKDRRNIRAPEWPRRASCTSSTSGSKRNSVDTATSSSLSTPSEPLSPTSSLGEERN
Sequence of hGYS1 enzyme (recombinant hGYS1/GN1 protein) (P46976 whole entry partner): as the sequence (P46976 whole entry partner) above
Test [3] concerns hGYS1 enzyme / glycogen synthesis in HeLa cells. The experiment in a line: GYS1 cell based assay (glycogen synthesis, Glucose-glo). Details: species or system human. Particulars: 24 h incubation, 20 mM glucose, geometric mean of at least 2 runs. The gist of the method: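 HeLa cells starved 24 h in medium containing only 1× Glutamax were plated onto compound in medium with 20 mM glucose (1% DMSO final) for 24 h, 37 °C, 5% CO2. Acid lysates were Tris-quenched, glucoamylase-digested (pH 5.3, 1 h, 37 °C) and read by Glucose-glo luminescence. IC50 came from Hill fits, as geometric mean of ≥2 runs.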

For `CC(C)c1ccc([C@@H](NC(=O)[C@@H]2C[C@@H](F)CN2C(=O)C(C)c2cnn[nH]2)c2ccccc2)cc1F` (single isomer, unassigned) [Compound 769, (2S,4R)-4-fluoro-N-[(S)-[3-fluoro-4-(propan-2-yl)phenyl](phenyl)methyl]-1-[(2R) or (2S)-2-(1H-1,2,3-triazol-5-yl)propanoyl]pyrrolidine-2-carboxamide], the IC50 in test [1] was above 100000 nM; in test [2], 22 nM; in test [3] (Homo sapiens, HeLa, 24 h), 290 nM.

As to `CC(C)c1ccc([C@@H](NC(=O)[C@@H]2C[C@@H](F)CN2C(=O)C(C)n2ccnc2)c2ccccc2)cc1F` (single isomer, unassigned) [Compound 771, (2S,4R)-4-fluoro-N-[(S)-[3-fluoro-4-(propan-2-yl)phenyl](phenyl)methyl]-1-[(2S) or (2R)-2-(1H-imidazol-1-yl)propanoyl]pyrrolidine-2-carboxamide], the IC50 was above 100000 nM in test [1], 33 nM in test [2] and 540 nM in test [3].

As for `CC(C)c1ccc([C@@H](NC(=O)[C@@H]2C[C@@H](F)CN2C(=O)C(O)c2cnn[nH]2)c2ccccc2)cc1F` (single isomer, unassigned) [Compound 773, (2S,4R)-4-fluoro-N -[(S)-[3-fluoro-4-(propan-2-yl)phenyl](phenyl)methyl]-1-[(2R) or (2S)-2-hydroxy-2-(1H-1,2,3-triazol-5-yl)acetyl]pyrrolidine-2-carboxamide], the IC50 was above 100000 nM in test [1], 124 nM in test [2] and 1200 nM in test [3].

On to `CC(C)c1ccc([C@@H](NC(=O)[C@@H]2C[C@@H](F)CN2C(=O)C(O)c2cnn[nH]2)c2ccccc2)cc1F` (single isomer, unassigned) [Compound 774, (2S,4R)-4-fluoro-N-[(S)-[3-fluoro-4-(propan-2-yl)phenyl](phenyl)methyl]-1-[(2S) or (2R)-2-hydroxy-2-(1H-1,2,3-triazol-5-yl)acetyl]pyrrolidine-2-carboxamide], for which the results for the IC50 in test [1], in test [2] and in test [3] were above 100000 nM, 22 nM and 190 nM, respectively.

Regarding `CC(C(=O)N1C[C@H](F)C[C@H]1C(=O)N[C@@H](c1ccccc1)c1ccc(C2CC2)c(F)c1)n1cnc2ccccc21` (single isomer, unassigned) [Compound 809, (2S,4R)-1-[(2S) or (2R)-2-(1H-1,3-benzodiazol-1-yl)propanoyl]-N-[(S)-(4-cyclopropyl-3-fluorophenyl)(phenyl)methyl]-4-fluoropyrrolidine-2-carboxamide], the IC50 in test [1] was above 100000 nM; in test [2] it was 7 nM; in test [3] it was 190 nM.

As to `CC(C(=O)N1C[C@H](F)C[C@H]1C(=O)N[C@@H](c1ccccc1)c1ccc(C2CC2)c(F)c1)n1cnc2ccccc21` (single isomer, unassigned) [Compound 810, (2S,4R)-1-[(2R) or (2S)-2-(1H-1,3-benzodiazol-1-yl)propanoyl]-N-[(S)-(4-cyclopropyl-3-fluorophenyl)(phenyl)methyl]-4-fluoropyrrolidine-2-carboxamide], the results for the IC50 in test [1], in test [2] and in test [3] were above 100000 nM, 357 nM and 5280 nM, respectively.

Turning to `CC(C)c1ccc([C@@H](NC(=O)[C@@H]2C[C@@H](F)CN2C(=O)Cc2nncn2C)c2ccccc2)cc1` (stereo in doubt) [Compound 227, (2RS,4R)-4-fluoro-1-[2-(4-methyl-4H-1,2,4-triazol-3-yl)acetyl]-N-[(S)-phenyl[4-(propan-2-yl)phenyl]methyl]pyrrolidine-2-carboxamide], the IC50 in test [1] was above 100000 nM; in test [2], 76 nM; in test [3] (Homo sapiens, HeLa, 24 h) it was 1310 nM.

As for `CC(C)c1ccc([C@@H](NC(=O)[C@@H]2C[C@@H](F)CN2C(=O)Cc2cnn[nH]2)c2ccccc2)cc1` [Compound 1, (2S,4R)-1-(2-(1H-1,2,3-triazol-5-yl)acetyl)-4-fluoro-N-((S)-(4-isopropylphenyl)(phenyl)methyl) pyrrolidine-2-carboxamide], the IC50 is above 100000 nM in test [1]; 33 nM in test [2]; 420 nM in test [3] (Homo sapiens, HeLa, 24 h).

As for `CC(=O)N(CCC(=O)N1C[C@H](F)C[C@H]1C(=O)N[C@@H](c1ccccc1)c1ccc(C(C)C)cc1)c1ccn(C)n1` [Compound 2, (2S,4R)-4-fluoro-1-{3-[N-(1-methyl-1H-pyrazol-3-yl)acetamido)propanoyl}-N-[(S)-phenyl[4-(propan-2-yl)phenyl]methyl]pyrrolidine-2-carboxamide], the IC50 in test [1] was above 100000 nM; in test [2] it was 59 nM; in test [3] (Homo sapiens, HeLa, 24 h), 1090 nM.

For `CC(C)c1ccc([C@@H](NC(=O)[C@@H]2C[C@@H](F)CN2C(=O)Cn2nccn2)c2ccccc2)cc1` [Compound 17, (2S,4R)-4-fluoro-N-[(S)-phenyl[4-(propan-2-yl)phenyl]methyl]-1-[2-(2H-1,2,3-triazol-2-yl)acetyl]pyrrolidine-2-carboxamide], the IC50 is above 100000 nM in test [1]; 34 nM in test [2]; 330 nM in test [3] (Homo sapiens, HeLa, 24 h).

Turning to `CC(C)c1ccc([C@@H](NC(=O)[C@@H]2C[C@@H](F)CN2C(=O)COc2cccnn2)c2ccccc2)cc1` [Compound 21, (2S,4R)-4-fluoro-N-[(S)-phenyl[4-(propan-2-yl)phenyl]methyl]-1-[2-(pyridazin-3-yloxy)acetyl]pyrrolidine-2-carboxamide], the IC50 in test [1] is above 100000 nM; in test [2], 27 nM; in test [3] (Homo sapiens, HeLa, 24 h), 470 nM.

In the case of `CC(C)c1ccc([C@@H](NC(=O)[C@@H]2C[C@@H](F)CN2C(=O)Cc2ccn(C)n2)c2ccccc2)cc1` [Compound 49, (2S,4R)-4-fluoro-1-[2-(1-methyl-1H-pyrazol-3-yl)acetyl]-N-[(S)-phenyl[4-(propan-2-yl)phenyl]methyl]pyrrolidine-2-carboxamide], the IC50 in test [1] was above 100000 nM; in test [2], 39 nM; in test [3] (Homo sapiens, HeLa, 24 h), 360 nM.

With `CC(C)c1ccc([C@@H](NC(=O)[C@@H]2C[C@@H](F)CN2C(=O)Cn2cnc3ccccc32)c2ccccc2)cc1` [Compound 77, (2S,4R)-1-[2-(1H-1,3-benzodiazol-1-yl)acetyl]-4-fluoro-N-[(S)-phenyl[4-(propan-2-yl)phenyl]methyl]pyrrolidine-2-carboxamide], the IC50 in test [1] is above 100000 nM; in test [2], 8 nM; in test [3] (Homo sapiens, HeLa, 24 h), 120 nM.

Take `Cc1cn(CC(=O)N2C[C@H](F)C[C@H]2C(=O)N[C@@H](c2ccccc2)c2ccc(C(C)C)cc2)c(=O)[nH]c1=O` [Compound 126, (2S,4R)-4-fluoro-1-[2-(5-methyl-2,4-dioxo-1,2,3,4-tetrahydropyrimidin-1-yl)acetyl]-N-[(S)-phenyl[4-(propan-2-yl)phenyl]methyl]pyrrolidine-2-carboxamide]: the IC50 in test [1] was above 100000 nM; in test [2], 11 nM; in test [3] (Homo sapiens, HeLa, 24 h), 170 nM.

For `Cc1nn(C)c(C)c1CC(=O)N1C[C@H](F)C[C@H]1C(=O)N[C@@H](c1ccccc1)c1ccc(C(C)C)cc1` [Compound 136, (2S,4R)-4-fluoro-N-[(S)-phenyl[4-(propan-2-yl)phenyl]methyl]-1-[2-(1,3,5-trimethyl-1H-pyrazol-4-yl)acetyl]pyrrolidine-2-carboxamide], the IC50 in test [1] is above 100000 nM; in test [2], 9 nM; in test [3] (Homo sapiens, HeLa, 24 h), 170 nM.

On to `Cc1ccc2[nH]cc(CC(=O)N3C[C@H](F)C[C@H]3C(=O)N[C@@H](c3ccccc3)c3ccc(C(C)C)cc3)c2c1` [Compound 138, (2S,4R)-4-fluoro-1-[2-(5-methyl-1H-indol-3-yl)acetyl]-N-[(S)-phenyl[4-(propan-2-yl)phenyl]methyl]pyrrolidine-2-carboxamide], for which the IC50 in test [1] is above 100000 nM; in test [2], 12 nM; in test [3] (Homo sapiens, HeLa, 24 h), 270 nM.

On to `CC(=O)N1C[C@H](C(=O)N2C[C@H](F)C[C@H]2C(=O)N[C@@H](c2ccccc2)c2ccc(C(C)C)cc2)[C@H]2OCC[C@H]21` [Compound 166, (2S,4R)-1-[(3aR,6S,6aR)-4-acetyl-hexahydro-2H-furo[3,2-b]pyrrole-6-carbonyl]-4-fluoro-N-[(S)-phenyl[4-(propan-2-yl)phenyl]methyl]pyrrolidine-2-carboxamide], for which the IC50 in test [1] was above 100000 nM; in test [2], 56 nM; in test [3] (Homo sapiens, HeLa, 24 h) it was 780 nM.

With `CC(=O)N1CCCC(C(=O)N2C[C@H](F)C[C@H]2C(=O)N[C@@H](c2ccccc2)c2ccc(C(C)C)cc2)C1C` (stereo partly drawn) [Compound 178, (2S,4R)-1-(1-acetyl-2-methylpiperidine-3-carbonyl)-4-fluoro-N-[(S)-phenyl[4-(propan-2-yl)phenyl]methyl]pyrrolidine-2-carboxamide], the IC50 is above 100000 nM in test [1]; 38 nM in test [2]; 410 nM in test [3] (Homo sapiens, HeLa, 24 h).

For the molecule `CC[C@@H]1CN(C(C)=O)C[C@@H]1C(=O)N1C[C@H](F)C[C@H]1C(=O)N[C@@H](c1ccccc1)c1ccc(C(C)C)cc1` [Compound 179, (2S,4R)-1-[(3R,4S)-1-acetyl-4-ethylpyrrolidine-3-carbonyl]-4-fluoro-N-[(S)-phenyl[4-(propan-2-yl)phenyl]methyl]pyrrolidine-2-carboxamide], the IC50 was above 100000 nM in test [1]; 31 nM in test [2]; 400 nM in test [3] (Homo sapiens, HeLa, 24 h).
